# Measurements from ChEMBL document CHEMBL1137594, “Discovery of non-covalent dipeptidyl peptidase IV inhibitors which induce a conformational change in the active site” (Bioorg Med Chem Lett, 2007).
# Molecular target: Dipeptidyl peptidase 4 (Rattus norvegicus, UniProt P14740)
# Details: po, read-out: Reduction
# Description: Ex vivo DDP-IV inhibition after a 30 mpk oral administration to healthy rats compared to vehicle in an oral glucose tolerance test (OGTT)
# Chain of Dipeptidyl peptidase 4 (P14740 whole entry): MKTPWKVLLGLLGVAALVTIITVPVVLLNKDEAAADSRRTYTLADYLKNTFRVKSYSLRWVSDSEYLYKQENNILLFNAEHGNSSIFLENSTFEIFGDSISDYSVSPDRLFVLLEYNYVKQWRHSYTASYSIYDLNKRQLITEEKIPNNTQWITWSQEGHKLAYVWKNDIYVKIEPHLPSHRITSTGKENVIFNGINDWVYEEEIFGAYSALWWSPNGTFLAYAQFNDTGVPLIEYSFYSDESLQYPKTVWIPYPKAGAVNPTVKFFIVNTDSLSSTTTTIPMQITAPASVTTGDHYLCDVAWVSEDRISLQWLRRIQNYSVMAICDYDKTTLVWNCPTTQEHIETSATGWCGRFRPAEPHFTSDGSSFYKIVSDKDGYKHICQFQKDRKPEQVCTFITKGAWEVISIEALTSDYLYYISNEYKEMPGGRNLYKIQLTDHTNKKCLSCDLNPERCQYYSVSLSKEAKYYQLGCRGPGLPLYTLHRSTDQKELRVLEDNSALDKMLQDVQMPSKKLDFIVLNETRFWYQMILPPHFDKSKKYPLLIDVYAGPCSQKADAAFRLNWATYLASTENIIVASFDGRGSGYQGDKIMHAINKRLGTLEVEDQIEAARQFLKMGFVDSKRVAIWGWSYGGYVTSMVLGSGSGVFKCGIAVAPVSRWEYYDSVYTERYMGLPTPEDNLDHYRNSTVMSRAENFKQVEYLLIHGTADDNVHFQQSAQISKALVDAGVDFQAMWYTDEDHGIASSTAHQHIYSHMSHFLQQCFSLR
smiles,measurement,value
NC(=O)c1ccc(OCC2(NCC(=O)c3ccsc3)CCCC2)cc1,inhibition at 30 mg/kg,24%
